Test results published in BindingDB's records for patent US20240148821 (Chugai Seiyaku Kabushiki Kaisha, 2024).
Numbered stars: 1 amine (or outer) side, 2 acyl side, 3 side chain; on linkers, the order of the positions; unused ones are H or OH. Bridge positions count the residues as written; N and C are the ends. Square brackets hold non-standard residues; d marks the D form. Peptide text beside a SMILES is read from it. * marks the point of attachment. ξ: configuration not given here. hPhe(3,5-F2-4-CF3) = N[C@@H](CCc1cc(F)c(C(F)(F)F)c(F)c1)C(=O)O; hPhe(3-Cl-4-CF3) = N[C@@H](CCc1ccc(C(F)(F)F)c(Cl)c1)C(=O)O; hPhe(3-F,4-CF3) = N[C@@H](CCc1ccc(C(F)(F)F)c(F)c1)C(=O)O; NMeGly(COCH2cHex) = CN[C@H](C(=O)O)C(=O)CC1CCCCC1; X54 = COc1cc(CC[C@H](N[*:1])C(=O)[*:2])cc(Cl)c1Cl; X63 = O=C([C@H](CCc1ccc(C(F)F)c(F)c1)N[*:1])[*:2]; X96 = O=C([C@H](CCc1ccc(C(F)(F)F)nc1)N[*:1])[*:2]; Piperazinyl(4-(3-oxetanyl)) = C1OCC1N1CCN(*)CC1; X55 = Cn1ccc2ccc(CC[C@H](N[*:1])C(=O)[*:2])cc21; X44 = O=C([C@H](CCc1ccc2cccnc2c1)N[*:1])[*:2]; X85 = O=C([C@H](CCc1ccc2ncccc2c1)N[*:1])[*:2]; NMeGly(cPent) = CN[C@H](C(=O)O)C1CCCC1; NMeCha = CN[C@@H](CC1CCCCC1)C(=O)O; cisHyp = O=C(O)[C@@H]1C[C@H](O)CN1; ξPro(4,4-F2) = O=C(O)C1CC(F)(F)CN1; Hyp = O=C(O)[C@@H]1C[C@@H](O)CN1; NMeChg = CN[C@H](C(=O)O)C1CCCCC1; NMeI = CC[C@H](C)[C@H](NC)C(=O)O; NMeD = CN[C@@H](CC(=O)O)C(=O)O; NMeL = CN[C@@H](CC(C)C)C(=O)O; d(β3hA) = C[C@@H](N)CC(=O)O; NMeA = CN[C@@H](C)C(=O)O; Piperidide = C1CCN(*)CC1; Pyrrolidide = C1CCN(*)C1; Ac5c = NC1(C(=O)O)CCCC1; Aze = O=C(O)[C@@H]1CCN1; Ac4c = NC1(C(=O)O)CCC1; ξP = O=C(O)C1CCCN1; Sar = CNCC(=O)O

target: GTPase KRas (G12D) and Son of Sevenless Homolog 1 (SOS) (Homo sapiens, UniProt P01116, G12D); assay: AlphaScreen Assay
Sequence (P01116 whole entry G12D): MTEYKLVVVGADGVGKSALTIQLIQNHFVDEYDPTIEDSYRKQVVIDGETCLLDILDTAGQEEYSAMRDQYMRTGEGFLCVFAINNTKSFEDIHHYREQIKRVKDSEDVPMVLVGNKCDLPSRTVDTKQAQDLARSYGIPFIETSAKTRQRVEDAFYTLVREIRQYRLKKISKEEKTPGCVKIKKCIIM
Sequence (Q07889 whole entry, further chain): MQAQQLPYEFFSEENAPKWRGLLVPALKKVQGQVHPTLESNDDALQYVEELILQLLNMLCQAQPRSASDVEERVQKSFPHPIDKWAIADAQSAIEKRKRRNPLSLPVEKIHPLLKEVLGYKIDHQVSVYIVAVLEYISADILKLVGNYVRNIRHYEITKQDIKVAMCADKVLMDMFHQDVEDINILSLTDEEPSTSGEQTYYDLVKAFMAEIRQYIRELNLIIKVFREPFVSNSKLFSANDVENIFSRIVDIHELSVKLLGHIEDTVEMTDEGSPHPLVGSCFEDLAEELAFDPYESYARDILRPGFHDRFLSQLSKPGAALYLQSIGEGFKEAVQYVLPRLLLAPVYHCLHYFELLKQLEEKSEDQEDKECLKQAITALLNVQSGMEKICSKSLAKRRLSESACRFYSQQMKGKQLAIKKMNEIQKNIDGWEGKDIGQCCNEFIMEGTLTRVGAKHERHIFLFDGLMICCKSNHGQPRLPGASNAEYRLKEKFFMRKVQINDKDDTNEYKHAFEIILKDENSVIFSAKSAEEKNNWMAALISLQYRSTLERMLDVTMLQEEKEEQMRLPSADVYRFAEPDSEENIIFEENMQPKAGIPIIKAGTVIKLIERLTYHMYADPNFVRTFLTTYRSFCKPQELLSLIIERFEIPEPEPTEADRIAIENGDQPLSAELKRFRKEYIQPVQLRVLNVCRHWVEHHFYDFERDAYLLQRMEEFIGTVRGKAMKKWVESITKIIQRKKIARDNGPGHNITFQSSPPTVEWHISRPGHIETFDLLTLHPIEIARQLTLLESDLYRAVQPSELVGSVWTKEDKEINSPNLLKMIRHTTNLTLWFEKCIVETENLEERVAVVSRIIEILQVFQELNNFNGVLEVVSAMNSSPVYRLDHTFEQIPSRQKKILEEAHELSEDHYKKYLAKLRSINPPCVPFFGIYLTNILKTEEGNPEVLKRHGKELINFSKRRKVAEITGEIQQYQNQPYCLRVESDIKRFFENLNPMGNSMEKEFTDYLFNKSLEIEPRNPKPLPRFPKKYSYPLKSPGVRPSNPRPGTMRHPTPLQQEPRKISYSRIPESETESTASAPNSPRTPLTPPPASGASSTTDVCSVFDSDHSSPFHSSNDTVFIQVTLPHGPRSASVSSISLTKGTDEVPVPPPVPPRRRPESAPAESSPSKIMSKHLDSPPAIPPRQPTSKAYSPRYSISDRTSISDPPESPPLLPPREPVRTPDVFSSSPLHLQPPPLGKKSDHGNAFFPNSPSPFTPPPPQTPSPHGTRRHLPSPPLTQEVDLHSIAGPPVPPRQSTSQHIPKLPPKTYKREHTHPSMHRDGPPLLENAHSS
Description: Protein-protein interaction inhibition (PPI) between Kras and SOS1 was measured by energy transfer from nickel-conjugated donor beads to streptavidin-conjugated acceptor beads using biotin-tagged human Kras expressed in E. coli and loaded with GDP after purification and His-tagged human SOS1 enzyme. This measurement utilizes the phenomenon in which donor beads are irradiated with light at 680 nm, such that energy is transferred to acceptor beads through singlet oxygen and light at 520-620 nm is detected from the acceptor beads.

Structure (SMILES) | IC50
CC[C@H](C)[C@@H]1NC(=O)[C@H](CC(C)C)N(C)C(=O)C[C@@H](C(=O)N2CCCCC2)N(C)C(=O)[C@H](CC(C)C)N(C)C(=O)C2(CCCC2)NC(=O)[C@@H]2C[C@H](O)CN2C(=O)[C@H](CCc2ccc(C(F)(F)F)c(F)c2)NC(=O)CN(C)C(=O)[C@H](CC2CCCCC2)N(C)C(=O)CN(C)C(=O)CN(C)C1=O [US20240148821, Compound 544] ([NMeL]I[Sar][Sar][NMeCha][Sar][hPhe(3-F,4-CF3)][cisHyp][Ac5c][NMeL][NMeD]-Piperidide; lactam N-11) | 2.2 nM
CC[C@H](C)[C@@H]1NC(=O)[C@H](CC(C)C)N(C)C(=O)C[C@@H](C)NC(=O)[C@H](CC(C)C)N(C)C(=O)C2(CCCC2)NC(=O)[C@@H]2C[C@@H](O)CN2C(=O)[C@H](CCc2ccc(C(F)(F)F)c(F)c2)NC(=O)CN(C)C(=O)[C@H](CC2CCCCC2)N(C)C(=O)CN(C)C(=O)CN(C)C1=O [US20240148821, Compound 1483] (cyclo([Ac5c][NMeL][d(β3hA)][NMeL]I[Sar][Sar][NMeCha][Sar][hPhe(3-F,4-CF3)][Hyp])) | 34 nM
CC[C@H](C)[C@@H]1NC(=O)[C@H](CC(C)C)N(C)C(=O)C[C@@H](C(=O)N2CCCCC2)N(C)C(=O)[C@H](C2CCCC2)N(C)C(=O)C2(CCCC2)NC(=O)[C@@H]2CCCN2C(=O)[C@H](CCc2ccc3ncccc3c2)NC(=O)CN(C)C(=O)[C@H](CC2CCCCC2)N(C)C(=O)[C@@H]2CCN2C(=O)[C@H](C)N(C)C1=O [US20240148821, Compound 2070] ([NMeL]I[NMeA][Aze][NMeCha][Sar][X85]P[Ac5c][NMeGly(cPent)][NMeD]-Piperidide; lactam N-11) | 18 nM
CC[C@H](C)[C@@H]1NC(=O)[C@H](C)N(C)C(=O)C[C@@H](C(=O)N2CCCCC2)N(C)C(=O)[C@H](C2CCCCC2)N(C)C(=O)C2(CCCC2)NC(=O)C2CCCN2C(=O)[C@H](CCc2cc(Cl)c(Cl)c(OC)c2)NC(=O)CN(C)C(=O)[C@H](C(=O)CC2CCCCC2)N(C)C(=O)CN(C)C(=O)CN(C)C1=O (stereo not given in full) [US20240148821, Compound 2081] ([NMeA]I[Sar][Sar][NMeGly(COCH2cHex)][Sar][X54][ξP][Ac5c][NMeChg][NMeD]-Piperidide; lactam N-11) | 2 nM

The next lines start with the values.

IC50 | Structure (SMILES)
6.7 nM | CC[C@H](C)[C@@H]1NC(=O)[C@H](CC(C)C)N(C)C(=O)C[C@@H](C(=O)N2CCN(C3COC3)CC2)NC(=O)[C@H]([C@@H](C)CC)N(C)C(=O)C2(CCCC2)NC(=O)C2CCCN2C(=O)[C@H](CCc2ccc(C(F)(F)F)c(Cl)c2)NC(=O)CN(C)C(=O)[C@H](C(=O)CC2CCCCC2)N(C)C(=O)CN(C)C(=O)CN(C)C1=O (stereo partly drawn) [US20240148821, Compound 1191] ([NMeL]I[Sar][Sar][NMeGly(COCH2cHex)][Sar][hPhe(3-Cl-4-CF3)][ξP][Ac5c][NMeI]D-{Piperazinyl(4-(3-oxetanyl))}; lactam N-11)
0.39 nM | CC[C@H](C)[C@@H]1NC(=O)[C@H](CC(C)C)N(C)C(=O)C[C@@H](C(=O)N2CCCC2)N(C)C(=O)[C@H](C2CCCCC2)N(C)C(=O)C2(CCC2)NC(=O)C2CC(F)(F)CN2C(=O)[C@H](CCc2cc(F)c(C(F)(F)F)c(F)c2)NC(=O)CN(C)C(=O)[C@H](C(=O)CC2CCCCC2)N(C)C(=O)CN(C)C(=O)CN(C)C1=O (stereo not given in full) [US20240148821, Compound 1192] ([NMeL]I[Sar][Sar][NMeGly(COCH2cHex)][Sar][hPhe(3,5-F2-4-CF3)][ξPro(4,4-F2)][Ac4c][NMeChg][NMeD]-Pyrrolidide; lactam N-11)
16 nM | CC[C@H](C)[C@@H]1NC(=O)[C@H](CC(C)C)N(C)C(=O)C[C@@H](C(=O)N2CCCCC2)N(C)C(=O)[C@H](C2CCCC2)N(C)C(=O)C2(CCCC2)NC(=O)[C@@H]2CCCN2C(=O)[C@H](CCc2ccc3ccn(C)c3c2)NC(=O)CN(C)C(=O)[C@H](CC2CCCCC2)N(C)C(=O)[C@@H]2CCN2C(=O)[C@H](C)N(C)C1=O [US20240148821, Compound 2065] ([NMeL]I[NMeA][Aze][NMeCha][Sar][X55]P[Ac5c][NMeGly(cPent)][NMeD]-Piperidide; lactam N-11)
47 nM | CC[C@H](C)[C@@H]1NC(=O)[C@H](CC(C)C)N(C)C(=O)C[C@@H](C(=O)N2CCCCC2)N(C)C(=O)[C@H](C2CCCC2)N(C)C(=O)C2(CCCC2)NC(=O)[C@@H]2CCCN2C(=O)[C@H](CCc2ccc3cccnc3c2)NC(=O)CN(C)C(=O)[C@H](CC2CCCCC2)N(C)C(=O)[C@@H]2CCN2C(=O)[C@H](C)N(C)C1=O [US20240148821, Compound 2077] ([NMeL]I[NMeA][Aze][NMeCha][Sar][X44]P[Ac5c][NMeGly(cPent)][NMeD]-Piperidide; lactam N-11)
11 nM | CC[C@H](C)[C@@H]1NC(=O)[C@H](CC(C)C)N(C)C(=O)C[C@@H](C(=O)N2CCCCC2)N(C)C(=O)[C@H](C2CCCC2)N(C)C(=O)C2(CCCC2)NC(=O)[C@@H]2CCCN2C(=O)[C@H](CCc2ccc(C(F)(F)F)nc2)NC(=O)CN(C)C(=O)[C@H](CC2CCCCC2)N(C)C(=O)[C@@H]2CCN2C(=O)[C@H](C)N(C)C1=O [US20240148821, Compound 2078] ([NMeL]I[NMeA][Aze][NMeCha][Sar][X96]P[Ac5c][NMeGly(cPent)][NMeD]-Piperidide; lactam N-11)
2.9 nM | CC[C@H](C)[C@@H]1NC(=O)[C@H](CC(C)C)N(C)C(=O)C[C@@H](C(=O)N2CCCCC2)N(C)C(=O)[C@H](C2CCCC2)N(C)C(=O)C2(CCCC2)NC(=O)[C@@H]2CCCN2C(=O)[C@H](CCc2ccc(C(F)F)c(F)c2)NC(=O)CN(C)C(=O)[C@H](CC2CCCCC2)N(C)C(=O)[C@@H]2CCN2C(=O)[C@H](C)N(C)C1=O [US20240148821, Compound 2085] ([NMeL]I[NMeA][Aze][NMeCha][Sar][X63]P[Ac5c][NMeGly(cPent)][NMeD]-Piperidide; lactam N-11)
